Laboratory results reported in ChEMBL document CHEMBL1201862, “PubChem BioAssay data set” (2004).
Activity calls are given as the source filed them.

What was measured:
[1] = molecular target: Luciferin 4-monooxygenase (Photinus pyralis, UniProt P08659); assay: inhibition of purified Photinus pyralis luciferase – biochemical, luminescence, dose response (AID 1891)
[2] = Luminescence Cell-Based Dose Confirmation HTS to Identify Inhibitors of Platelet Dense Granule Release. [Related pubchem assays: 1663 (Primary HTS), 1678 (Summary of Project)]; format: functional
[3] = PAR1 agonist-induced platelet activation inhibition – cell-based, fluorescence, flow cytometry, human platelets, dose response (AID 2511); format: functional
[4] = SFLLRN-induced P-Selectin Platelet Surface Expression Measured in Cell-Based System Using Flow Cytometry - 2016-03_Inhibitor_Dose_DryPowder_Activity_Set3. [Related pubchem assays (depositor defined):AID1678]; format: functional
[5] = blockers of SFLLRN-triggered platelet ATP secretion – cell-based, human platelets, luminescence, dry powder, dose response (AID 493100); format: functional
[6] = Luminescence Cell-Based Dose Response Follow up to Identify Inhibitors of Platelet Dense Granule Release. [Related pubchem assays (depositor defined):AID1663, AID1678, AID1889, AID2519]; format: functional
[7] = HEK-293T viability loss after treatment – luminescence, T-cell screen hits, cytotoxicity control for TCR NF-kB inhibitor project, dose response (AID 489026); format: functional, cell-based;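 further: cells exposed to compound about 14 hours before the viability readout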
[8] = molecular target: T1, Heat shock factor protein 1 (Mus musculus, UniProt P38532); assay: enhancement of HSF1-driven luciferase signal – cell-based, NIH3T3, luminescence, dose retest, confirmation (AID 435004); format: functional;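 further: stress induced by proteasome inhibitor MG132 added 30 min after compound; luciferase reporter driven by HSF1 response element in NIH3T3 cells; actives raise luminescence as potentiators of the MG132 stress response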
T1 sequence (P38532 whole entry): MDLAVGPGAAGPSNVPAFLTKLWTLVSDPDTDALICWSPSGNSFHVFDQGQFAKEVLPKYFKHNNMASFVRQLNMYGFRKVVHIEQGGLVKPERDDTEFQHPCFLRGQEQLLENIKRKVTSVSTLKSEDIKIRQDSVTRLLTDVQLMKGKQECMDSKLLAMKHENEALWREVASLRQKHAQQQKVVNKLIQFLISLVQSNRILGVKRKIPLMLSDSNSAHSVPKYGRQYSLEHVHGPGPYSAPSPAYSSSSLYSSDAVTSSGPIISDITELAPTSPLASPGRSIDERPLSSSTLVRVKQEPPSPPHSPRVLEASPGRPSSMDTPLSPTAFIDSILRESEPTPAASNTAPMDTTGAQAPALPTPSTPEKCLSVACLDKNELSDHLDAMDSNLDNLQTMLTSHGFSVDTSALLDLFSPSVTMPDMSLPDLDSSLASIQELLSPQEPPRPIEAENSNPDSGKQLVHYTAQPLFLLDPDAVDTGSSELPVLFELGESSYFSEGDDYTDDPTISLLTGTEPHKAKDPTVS

[9] = molecular target: Heat shock protein HSP 90-alpha (Homo sapiens, UniProt P07900); format: functional, organism-based
INS1 = assay: INS-1E survival protection against cytokine death – cell-based, luminescence, retest, dose response (AID 449756); format: functional; conditions: Rattus norvegicus;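 further: cell death triggered by IL-1 beta plus TNF-alpha plus IFN-gamma mixture; protective hits raise ATP signal compared with cytokine alone wells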
[10] = molecular target: 26S proteasome non-ATPase regulatory subunit 14 (Homo sapiens, UniProt O00487); assay: inhibition of proteasome subunit RPN11 – biochemical, fluorescence polarization, uHTS hits, confirmation (AID 602368); format: functional
[11] = molecular target: 72 kDa type IV collagenase (Homo sapiens, UniProt P08253); assay: Dose Response validation of uHTS RPN11 inhibitor hits using a MMP-2 Fluorescence assay.; format: functional
Prothrombin = Prothrombin (Bos taurus, UniProt P00735); assay: thrombin protease inhibitors – biochemical, fluorescence polarization, uHTS hits, dose response (AID 602369); format: functional
[12] = molecular target: T2, RNA-binding protein pos-1 (Caenorhabditis elegans, UniProt G5EF15); assay: disruptors of C. elegans POS-1 RNA interaction – biochemical, fluorescence polarization, dose response (AID 1964);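 further: purified POS-1 fused to maltose binding protein made in E. coli; potency of compounds blocking POS-1 binding to fluorescent RNA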
T2 sequence (G5EF15 whole entry): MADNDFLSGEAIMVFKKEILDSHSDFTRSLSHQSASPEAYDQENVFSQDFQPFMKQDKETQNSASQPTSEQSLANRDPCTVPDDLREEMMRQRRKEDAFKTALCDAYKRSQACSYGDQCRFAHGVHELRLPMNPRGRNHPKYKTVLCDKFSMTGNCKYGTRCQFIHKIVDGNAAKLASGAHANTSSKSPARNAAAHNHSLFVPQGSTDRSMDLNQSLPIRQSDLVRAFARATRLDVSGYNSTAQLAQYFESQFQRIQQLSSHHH

[13] = molecular target: T3, Zinc finger protein mex-5 (Caenorhabditis elegans, UniProt Q9XUB2); assay: potency of MEX-5 RNA-binding blockers – biochemical, C. elegans, fluorescence polarization, dose response (AID 1960)
T3 sequence (Q9XUB2 whole entry): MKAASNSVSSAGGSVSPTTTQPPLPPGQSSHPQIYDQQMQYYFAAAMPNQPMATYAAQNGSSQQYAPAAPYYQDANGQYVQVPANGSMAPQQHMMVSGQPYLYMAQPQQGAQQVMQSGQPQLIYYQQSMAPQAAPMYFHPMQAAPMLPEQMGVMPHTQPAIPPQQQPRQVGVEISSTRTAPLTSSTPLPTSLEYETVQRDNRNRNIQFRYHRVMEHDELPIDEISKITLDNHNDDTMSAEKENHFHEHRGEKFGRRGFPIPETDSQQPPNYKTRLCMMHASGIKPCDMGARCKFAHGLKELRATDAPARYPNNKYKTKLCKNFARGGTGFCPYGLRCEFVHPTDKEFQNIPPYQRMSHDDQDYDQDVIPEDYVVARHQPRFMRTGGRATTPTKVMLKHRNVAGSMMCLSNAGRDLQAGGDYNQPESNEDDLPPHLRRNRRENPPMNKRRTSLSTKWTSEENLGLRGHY

[14] = molecular target: Corticotropin-releasing factor receptor 2/Corticotropin-releasing factor-binding protein (Homo sapiens, UniProt Q13324+P24387); assay: activators of CRF receptor 2 with binding protein – uHTS hits, confirmation (AID 602473); format: functional; conditions: read-out: EC50_Mean
Cytochrome P450 3A4 = Cytochrome P450 3A4 (Homo sapiens, UniProt P08684);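 further: CYP3A4 tested as one member of a cytochrome P450 panel screen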
Cytochrome P450 2C9 = Cytochrome P450 2C9 (Homo sapiens, UniProt P11712)
CAAX prenyl protease 2 = CAAX prenyl protease 2 (Homo sapiens, UniProt Q9Y256); assay: inhibition of Ras-converting CAAX protease Rce1 – biochemical, yeast membranes, quenched-peptide fluorescence, cherry-pick, dose response (AID 588849)
[15] = Trypanosoma cruzi growth suppression in host cells – NIH3T3 host cells, beta-gal luminescence, confirmation (AID 2044); format: functional, cell-based;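 further: intracellular parasites grown in NIH/3T3 mouse fibroblasts as host cells; luminescent beta-galactosidase reporter signal from transgenic T. cruzi replicating inside host cells; inhibitors lower the luminescence signal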
[16] = NIH3T3 cell viability loss – ATP luminescence, mouse fibroblasts, counter-screen, dose response (AID 2010); format: functional, cell-based;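 further: cells exposed to compound for about 90 hours before reading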
[17] = Luminescence Cell-Based Dose Retest to Confirm Inhibitors of Cancer Stem Cells. [Related pubchem assays (depositor defined):AID2717, AID2721]; format: functional; conditions: Homo sapiens
[18] = molecular target: T4, Microphthalmia-associated transcription factor (Homo sapiens, UniProt O75030); assay: reducers of TRPM1 reporter luminescence, concentration series – cell-based, SK-MEL-5, cherry-picked, set 3, MITF inhibitor project, dose response (AID 493073); format: functional;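 further: SK-MEL-5 melanoma cells with luciferase driven by the MITF target TRPM1 promoter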
T4 sequence (O75030 whole entry): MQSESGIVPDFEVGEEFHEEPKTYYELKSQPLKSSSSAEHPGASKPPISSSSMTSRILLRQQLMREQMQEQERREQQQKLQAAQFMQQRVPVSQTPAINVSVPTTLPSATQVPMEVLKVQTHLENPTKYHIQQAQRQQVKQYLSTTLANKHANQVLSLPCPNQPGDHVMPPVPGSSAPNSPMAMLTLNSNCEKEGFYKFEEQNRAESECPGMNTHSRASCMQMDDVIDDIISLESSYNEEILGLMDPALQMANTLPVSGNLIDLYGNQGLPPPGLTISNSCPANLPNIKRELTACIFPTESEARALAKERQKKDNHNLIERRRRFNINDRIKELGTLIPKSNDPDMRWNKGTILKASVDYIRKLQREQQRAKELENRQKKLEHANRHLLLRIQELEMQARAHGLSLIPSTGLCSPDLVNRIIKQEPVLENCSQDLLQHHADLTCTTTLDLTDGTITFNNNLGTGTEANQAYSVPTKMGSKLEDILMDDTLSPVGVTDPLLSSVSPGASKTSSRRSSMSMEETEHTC

A-375 [19] = assay: MITF: Counter assay: A375 proliferation Measured in Cell-Based System Using Plate Reader - 2084-03_Inhibitor_Dose_DryPowder_Activity. [Related pubchem assays (depositor defined):AID488944]; format: functional; conditions: Homo sapiens
A-375 [20] = assay: proliferation inhibition in MITF-low A375 cells – cell-based, cherry-pick samples, set 2, counter-screen for MITF modulator project, dose response (AID 540335); format: functional; conditions: Homo sapiens
[21] = reduction of Shn3 3'UTR-driven luciferase in osteoblasts – cell-based, Clone20 osteoblasts, firefly luciferase, cherry-picked, dose response (AID 624132); format: functional;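 further: firefly luciferase luminescence from reporter carrying the Shn3 3'UTR in osteoblasts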
[22] = loss of viability in HepG2 cells – cell-based, CellTiter-Glo, cherry-picked, cytotoxicity control for Shn3 inhibitor project, dose response (AID 624134); format: functional
[23] = non-specific 3'UTR reporter inhibition in Clone20-Shn3RL – cell-based, Renilla luciferase, cherry-picked, counter-screen for Shn3 inhibitor project, dose response (AID 624133); format: functional
Phospholipase D1 = Phospholipase D1 (Homo sapiens, UniProt Q13393); assay: cellular phospholipase D1 inhibition IC50 – cell-based, dose response (AID 602151); format: functional;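 further: cellular PLD1 assay in Calu-1 cells stimulated with PMA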
Phospholipase D2 = Phospholipase D2 (Homo sapiens, UniProt O14939); assay: cellular phospholipase D2 inhibition IC50 – cell-based, dose response (AID 602147); format: functional;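 further: cellular assay in HEK293 cells overexpressing GFP-tagged PLD2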
[24] = molecular target: Protein kinase C delta type (Homo sapiens, UniProt Q05655); format: functional
[25] = molecular target: Calcium/calmodulin-dependent protein kinase type II subunit gamma (Homo sapiens, UniProt Q13555); format: functional
[26] = molecular target: Calcium/calmodulin-dependent protein kinase type II subunit beta (Homo sapiens, UniProt Q13554); format: functional
Aurora kinase B = Aurora kinase B (Homo sapiens, UniProt Q96GD4); format: functional
[27] = molecular target: Serine/threonine-protein kinase pim-1 (Homo sapiens, UniProt P11309); format: functional
[28] = molecular target: Cell division cycle 7-related protein kinase (Homo sapiens, UniProt O00311); format: functional;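 further: value obtained from a kinome-wide kinase panel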
[29] = molecular target: Homeodomain-interacting protein kinase 2 (Homo sapiens, UniProt Q9H2X6); format: functional;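 further: measured within a kinome-wide kinase profiling panel, HIPK2 being one panel member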
[30] = molecular target: Interleukin-1 receptor-associated kinase 4 (Homo sapiens, UniProt Q9NWZ3); format: functional
[31] = molecular target: Glycogen synthase kinase-3 beta (Homo sapiens, UniProt P49841); format: functional;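 further: value comes from a broad kinome profiling panel, with GSK3B as the panel member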
[32] = molecular target: cAMP-dependent protein kinase catalytic subunit alpha (Homo sapiens, UniProt P17612); format: functional
[33] = molecular target: Dual specificity protein kinase CLK4 (Homo sapiens, UniProt Q9HAZ1); format: functional
[34] = molecular target: Mitogen-activated protein kinase kinase kinase kinase 4 (Homo sapiens, UniProt O95819); format: functional
[35] = molecular target: T5, V-type proton ATPase subunit c' (Saccharomyces cerevisiae S288c, UniProt P32842); assay: Dose Response with BCECF Assay for V-ATPase inhibitors that increase vacuolar pH, Powder Set 1.; format: functional; conditions: read-out: EC50_MICROM
[36] = molecular target: T5, V-type proton ATPase subunit c'; assay: Dose Response of Small Molecules that Regulate V-ATPase Proton Transport in Yeast using pHLuorin, Powder Set1.; format: functional; conditions: read-out: EC50_MICROM

T5 sequence (P32842 whole entry): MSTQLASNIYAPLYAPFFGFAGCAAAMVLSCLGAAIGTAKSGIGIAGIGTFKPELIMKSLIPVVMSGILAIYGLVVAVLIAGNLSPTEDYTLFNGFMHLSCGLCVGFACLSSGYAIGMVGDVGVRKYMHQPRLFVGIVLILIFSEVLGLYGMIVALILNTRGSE
Chain of CAAX prenyl protease 2 (Q9Y256 whole entry): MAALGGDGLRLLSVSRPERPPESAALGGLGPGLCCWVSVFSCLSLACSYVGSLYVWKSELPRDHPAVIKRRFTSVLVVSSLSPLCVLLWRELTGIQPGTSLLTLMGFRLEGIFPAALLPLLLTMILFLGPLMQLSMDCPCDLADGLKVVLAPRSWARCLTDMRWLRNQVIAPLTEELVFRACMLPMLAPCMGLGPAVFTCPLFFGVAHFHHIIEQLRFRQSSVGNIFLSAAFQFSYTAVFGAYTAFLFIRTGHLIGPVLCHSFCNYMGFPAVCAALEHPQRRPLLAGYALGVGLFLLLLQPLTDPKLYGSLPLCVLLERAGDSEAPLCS
Chain of Phospholipase D2 (O14939 whole entry): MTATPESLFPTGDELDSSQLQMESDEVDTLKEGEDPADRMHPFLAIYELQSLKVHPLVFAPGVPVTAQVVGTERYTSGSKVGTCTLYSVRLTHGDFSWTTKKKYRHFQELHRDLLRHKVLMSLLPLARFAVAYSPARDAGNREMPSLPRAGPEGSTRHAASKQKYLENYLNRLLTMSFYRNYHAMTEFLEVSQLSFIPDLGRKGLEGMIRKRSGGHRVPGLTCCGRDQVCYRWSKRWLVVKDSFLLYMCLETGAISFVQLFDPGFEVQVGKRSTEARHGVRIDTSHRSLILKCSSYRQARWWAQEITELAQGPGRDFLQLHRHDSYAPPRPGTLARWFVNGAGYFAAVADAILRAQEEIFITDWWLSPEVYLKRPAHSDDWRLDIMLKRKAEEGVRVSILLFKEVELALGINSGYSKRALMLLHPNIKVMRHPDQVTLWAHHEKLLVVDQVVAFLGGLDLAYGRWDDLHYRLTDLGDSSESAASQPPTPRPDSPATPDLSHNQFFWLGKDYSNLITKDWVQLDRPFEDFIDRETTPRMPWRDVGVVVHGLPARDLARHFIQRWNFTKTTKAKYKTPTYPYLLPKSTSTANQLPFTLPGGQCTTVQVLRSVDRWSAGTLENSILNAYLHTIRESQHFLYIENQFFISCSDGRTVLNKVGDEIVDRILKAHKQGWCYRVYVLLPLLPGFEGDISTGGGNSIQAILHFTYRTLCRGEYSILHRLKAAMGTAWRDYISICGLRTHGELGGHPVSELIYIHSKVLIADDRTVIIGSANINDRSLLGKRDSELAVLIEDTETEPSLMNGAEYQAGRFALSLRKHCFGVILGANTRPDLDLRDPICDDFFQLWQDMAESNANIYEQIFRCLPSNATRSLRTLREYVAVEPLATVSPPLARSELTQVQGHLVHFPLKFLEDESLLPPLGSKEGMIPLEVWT
Chain of Luciferin 4-monooxygenase (P08659 whole entry): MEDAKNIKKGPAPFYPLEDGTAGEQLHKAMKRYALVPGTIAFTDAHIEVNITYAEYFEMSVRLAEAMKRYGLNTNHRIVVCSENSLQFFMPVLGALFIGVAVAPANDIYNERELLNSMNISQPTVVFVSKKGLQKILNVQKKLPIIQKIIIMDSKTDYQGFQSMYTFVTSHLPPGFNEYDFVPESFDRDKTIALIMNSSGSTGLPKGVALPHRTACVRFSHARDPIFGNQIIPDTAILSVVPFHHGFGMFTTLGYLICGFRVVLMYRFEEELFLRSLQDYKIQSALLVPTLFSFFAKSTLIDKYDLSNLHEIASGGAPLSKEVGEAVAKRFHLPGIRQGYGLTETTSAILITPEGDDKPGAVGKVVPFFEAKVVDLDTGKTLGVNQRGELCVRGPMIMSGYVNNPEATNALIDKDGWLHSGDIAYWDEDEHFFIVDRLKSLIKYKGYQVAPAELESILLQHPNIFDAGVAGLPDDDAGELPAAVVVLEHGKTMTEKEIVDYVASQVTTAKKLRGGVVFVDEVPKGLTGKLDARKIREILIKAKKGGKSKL
Chain of Calcium/calmodulin-dependent protein kinase type II subunit beta (Q13554 whole entry): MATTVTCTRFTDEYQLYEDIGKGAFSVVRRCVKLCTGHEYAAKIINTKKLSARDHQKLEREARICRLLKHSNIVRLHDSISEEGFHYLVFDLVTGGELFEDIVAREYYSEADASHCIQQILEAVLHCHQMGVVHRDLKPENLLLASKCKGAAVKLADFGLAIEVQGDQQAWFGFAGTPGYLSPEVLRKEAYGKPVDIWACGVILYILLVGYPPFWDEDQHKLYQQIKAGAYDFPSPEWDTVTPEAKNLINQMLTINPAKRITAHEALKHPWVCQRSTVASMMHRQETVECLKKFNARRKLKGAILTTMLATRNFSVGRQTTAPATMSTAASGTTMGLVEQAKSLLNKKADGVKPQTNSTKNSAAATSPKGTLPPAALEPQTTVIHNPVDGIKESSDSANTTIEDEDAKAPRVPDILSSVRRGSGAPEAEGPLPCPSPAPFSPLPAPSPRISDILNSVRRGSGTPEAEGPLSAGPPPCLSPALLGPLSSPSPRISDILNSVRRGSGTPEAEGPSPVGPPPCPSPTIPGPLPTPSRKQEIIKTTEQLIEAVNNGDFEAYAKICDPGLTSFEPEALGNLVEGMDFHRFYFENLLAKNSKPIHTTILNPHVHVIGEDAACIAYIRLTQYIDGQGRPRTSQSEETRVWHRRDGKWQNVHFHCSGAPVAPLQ
Chain of Serine/threonine-protein kinase pim-1 (P11309 whole entry): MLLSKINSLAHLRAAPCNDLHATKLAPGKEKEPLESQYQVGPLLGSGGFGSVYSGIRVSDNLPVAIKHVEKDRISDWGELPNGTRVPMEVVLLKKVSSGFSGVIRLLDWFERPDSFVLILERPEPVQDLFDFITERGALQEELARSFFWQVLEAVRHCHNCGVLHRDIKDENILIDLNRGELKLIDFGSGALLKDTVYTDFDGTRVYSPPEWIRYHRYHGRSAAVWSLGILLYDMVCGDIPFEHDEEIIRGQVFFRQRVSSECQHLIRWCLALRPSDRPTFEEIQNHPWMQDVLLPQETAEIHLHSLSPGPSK
Chain of Mitogen-activated protein kinase kinase kinase kinase 4 (O95819 whole entry): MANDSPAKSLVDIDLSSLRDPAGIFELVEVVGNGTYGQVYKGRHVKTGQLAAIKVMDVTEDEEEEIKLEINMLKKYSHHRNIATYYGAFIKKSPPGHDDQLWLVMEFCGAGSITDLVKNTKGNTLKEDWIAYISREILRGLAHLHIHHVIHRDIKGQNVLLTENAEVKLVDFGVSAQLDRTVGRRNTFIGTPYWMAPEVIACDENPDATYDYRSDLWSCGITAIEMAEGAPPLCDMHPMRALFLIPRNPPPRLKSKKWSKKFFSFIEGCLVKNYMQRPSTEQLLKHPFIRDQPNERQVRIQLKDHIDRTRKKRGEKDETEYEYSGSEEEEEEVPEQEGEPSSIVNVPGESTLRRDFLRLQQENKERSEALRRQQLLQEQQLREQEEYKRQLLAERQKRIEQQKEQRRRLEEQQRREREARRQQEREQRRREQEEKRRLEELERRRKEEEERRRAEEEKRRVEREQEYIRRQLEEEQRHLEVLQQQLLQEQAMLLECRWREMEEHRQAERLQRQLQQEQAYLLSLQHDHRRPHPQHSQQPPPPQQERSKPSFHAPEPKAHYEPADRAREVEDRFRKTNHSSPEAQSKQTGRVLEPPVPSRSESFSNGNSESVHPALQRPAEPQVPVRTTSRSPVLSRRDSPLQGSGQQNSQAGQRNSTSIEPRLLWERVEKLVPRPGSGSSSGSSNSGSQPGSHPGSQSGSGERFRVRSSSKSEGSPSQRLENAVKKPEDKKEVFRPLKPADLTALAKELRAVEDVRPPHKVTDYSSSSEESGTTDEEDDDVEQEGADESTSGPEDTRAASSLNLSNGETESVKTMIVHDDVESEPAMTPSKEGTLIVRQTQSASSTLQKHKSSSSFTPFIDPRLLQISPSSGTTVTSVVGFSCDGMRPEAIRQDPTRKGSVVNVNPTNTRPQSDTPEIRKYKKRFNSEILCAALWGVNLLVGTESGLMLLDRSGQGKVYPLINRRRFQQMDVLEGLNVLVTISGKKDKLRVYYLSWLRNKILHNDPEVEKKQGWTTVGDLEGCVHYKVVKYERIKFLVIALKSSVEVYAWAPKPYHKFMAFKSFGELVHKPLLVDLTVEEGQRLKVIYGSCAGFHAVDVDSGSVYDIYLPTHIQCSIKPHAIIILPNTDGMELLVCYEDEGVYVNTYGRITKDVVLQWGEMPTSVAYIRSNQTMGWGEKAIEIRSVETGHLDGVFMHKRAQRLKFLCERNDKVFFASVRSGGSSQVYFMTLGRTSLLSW
Chain of Protein kinase C delta type (Q05655 whole entry): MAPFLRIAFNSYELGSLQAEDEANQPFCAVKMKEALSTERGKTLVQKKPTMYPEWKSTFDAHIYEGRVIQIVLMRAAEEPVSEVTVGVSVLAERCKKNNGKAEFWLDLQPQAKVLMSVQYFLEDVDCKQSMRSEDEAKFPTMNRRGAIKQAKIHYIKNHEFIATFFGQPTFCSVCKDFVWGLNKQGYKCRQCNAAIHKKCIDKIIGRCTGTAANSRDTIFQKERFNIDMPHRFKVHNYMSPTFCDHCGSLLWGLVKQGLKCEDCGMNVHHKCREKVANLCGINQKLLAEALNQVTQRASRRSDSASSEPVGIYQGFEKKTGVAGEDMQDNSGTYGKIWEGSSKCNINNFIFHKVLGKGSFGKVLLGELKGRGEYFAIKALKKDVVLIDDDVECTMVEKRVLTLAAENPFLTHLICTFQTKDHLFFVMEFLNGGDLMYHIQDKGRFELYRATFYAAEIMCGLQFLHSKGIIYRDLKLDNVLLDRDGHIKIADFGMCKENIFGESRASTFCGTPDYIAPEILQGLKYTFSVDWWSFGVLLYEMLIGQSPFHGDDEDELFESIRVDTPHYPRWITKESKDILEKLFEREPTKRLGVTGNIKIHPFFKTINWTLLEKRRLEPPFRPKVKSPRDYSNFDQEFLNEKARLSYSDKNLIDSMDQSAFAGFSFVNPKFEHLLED

CCC(=O)Nc1cccc(NC(=O)c2ccccc2Br)c1
> 112 µM (not active): EC50 [1]
active: EC50 [2] 4.32 µM | EC50 [3] < 1 µM | AC50 [4] < 3.12 µM | AC50 [5] 21.2 µM | EC50 [6] 14 µM

Cc1cccc(N=Nc2ccc(O)c3ncccc23)c1
inactive: IC50 [7] > 80 µM
active: EC50 [8] 4.58 µM | AC50 [9] 3.91 µM | AC50 (INS1) 1.78 µM

O=C1c2cccc3cccc(c23)C(=O)N1c1ccc2ncccc2c1
active: IC50 [10] 23.9 µM | IC50 [11] 23 µM | IC50 (Prothrombin) 82.1 µM

CCCCC1(C)OC(=O)C(=Cc2ccc(N(CC)CC)cc2)C(=O)O1 (centres undefined)
> 300 µM (not active): EC50 [12] | EC50 [13]
inconclusive: AC50 (Cytochrome P450 3A4) 0.126 µM | AC50 (Cytochrome P450 2C9)
active: EC50 [14] 7.59 µM

Oc1ncccc1-c1nc2ccccc2n1Cc1cccc(Cl)c1
active: AC50 (CAAX prenyl protease 2) 5.23 µM

Cc1ccccc1C(=O)N1CCN(c2ccc(NC(=O)c3ccc([N+](=O)[O-])o3)cc2)CC1
active: EC50 [15] 3.14 µM | EC50 [16] 3.84 µM | AC50 [17] 1.8 µM | AC50 [18] 6.2 µM | AC50 (A-375 [19]) > 35 µM | AC50 (A-375 [20]) > 35 µM | AC50 [21] 0.864 µM | AC50 [22] 20.5 µM | AC50 [23] 9.76 µM

C[C@@H](CN1CCC(n2c(=O)[nH]c3ccc(F)cc32)CC1)NC(=O)c1ccc(F)cc1
active: IC50 (Phospholipase D1) 0.002 µM | IC50 (Phospholipase D2) 0.3 µM

Cc1cc(C(=O)NCCOCCOCCN)ccc1-c1cccc2c(CCCOc3cccc4ccccc34)c(C(=O)O)[nH]c12
active: Ki [24] 2.51 µM | Ki [25] 3.98 µM | Ki [26] 5.01 µM | Ki (Aurora kinase B) 3.98 µM

CC(C)(C)Oc1cc(-c2ccncc2)cc2[nH]nc(N)c12
active: Ki [27] 1.58 µM | Ki [28] 0.00251 µM | Ki [29] 0.398 µM | Ki [30] 0.251 µM | Ki [31] 0.631 µM | Ki [32] 0.158 µM | Ki [33] 0.0126 µM | Ki [34] 0.251 µM

COc1ccccc1N1CCN(C(=O)c2ccc([N+](=O)[O-])o2)CC1
active: EC50 [35] 24.3 µM | EC50 [36] 40.5 µM
